{
  "source": "paper PMC5362750",
  "about": "“Discovery of Potent, Selective, and Orally Bioavailable Small-Molecule Modulators of the Mediator Complex-Associated Kinases CDK8 and CDK19” (Journal of Medicinal Chemistry, 2016)",
  "key": {"[1]": {"target": "TIE2(Y897S) (Homo sapiens, UniProt Q02763, Y897S)", "conditions": "1 µM, ATP at Km"}, "[2]": {"target": "GABAA1 (h) (alpha 1,beta 2,gamma 2) (Homo sapiens, UniProt P14867+P47870)", "assay": "biochemical", "conditions": "read-out: % Inhibition of Control Specific Binding"}, "[3]": {"target": "T1, PYK2 (Homo sapiens, UniProt Q14289)", "T1 construct": "purchased Millipore (KinaseProfiler) kinase panel", "assay": "Kinase panel (Millipore)", "assay_type": "biochemical", "conditions": "1 µM, ATP at Km"}, "[4]": {"target": "T2, ULK3 (Homo sapiens, UniProt Q6PHR2)", "T2 construct": "purchased Millipore (KinaseProfiler) kinase panel", "assay": "Kinase panel (Millipore)", "assay_type": "biochemical", "conditions": "1 µM, ATP at Km"}, "[5]": {"target": "T3, PTK5 (Homo sapiens, UniProt P42685)", "T3 construct": "purchased Millipore (KinaseProfiler) kinase panel", "assay": "Kinase panel (Millipore)", "assay_type": "biochemical", "conditions": "1 µM, ATP at Km"}, "[6]": {"target": "T4, FGFR3 (Homo sapiens, UniProt P22607)", "T4 construct": "purchased Millipore (KinaseProfiler) kinase panel", "assay": "Kinase panel (Millipore)", "assay_type": "biochemical", "conditions": "1 µM, ATP at Km"}, "[7]": {"target": "A2B (h) (Homo sapiens, UniProt P29275)", "assay": "biochemical", "conditions": "read-out: % Inhibition of Control Specific Binding"}, "[8]": {"target": "T5, PDGFRBETA (Homo sapiens, UniProt P09619)", "T5 construct": "purchased Millipore (KinaseProfiler) kinase panel", "assay": "Kinase panel (Millipore)", "assay_type": "biochemical", "conditions": "1 µM, ATP at Km"}, "[9]": {"target": "T6, KDR (Homo sapiens, UniProt P35968)", "T6 construct": "purchased Millipore (KinaseProfiler) kinase panel", "T6 sequence (P35968 20-1356)": "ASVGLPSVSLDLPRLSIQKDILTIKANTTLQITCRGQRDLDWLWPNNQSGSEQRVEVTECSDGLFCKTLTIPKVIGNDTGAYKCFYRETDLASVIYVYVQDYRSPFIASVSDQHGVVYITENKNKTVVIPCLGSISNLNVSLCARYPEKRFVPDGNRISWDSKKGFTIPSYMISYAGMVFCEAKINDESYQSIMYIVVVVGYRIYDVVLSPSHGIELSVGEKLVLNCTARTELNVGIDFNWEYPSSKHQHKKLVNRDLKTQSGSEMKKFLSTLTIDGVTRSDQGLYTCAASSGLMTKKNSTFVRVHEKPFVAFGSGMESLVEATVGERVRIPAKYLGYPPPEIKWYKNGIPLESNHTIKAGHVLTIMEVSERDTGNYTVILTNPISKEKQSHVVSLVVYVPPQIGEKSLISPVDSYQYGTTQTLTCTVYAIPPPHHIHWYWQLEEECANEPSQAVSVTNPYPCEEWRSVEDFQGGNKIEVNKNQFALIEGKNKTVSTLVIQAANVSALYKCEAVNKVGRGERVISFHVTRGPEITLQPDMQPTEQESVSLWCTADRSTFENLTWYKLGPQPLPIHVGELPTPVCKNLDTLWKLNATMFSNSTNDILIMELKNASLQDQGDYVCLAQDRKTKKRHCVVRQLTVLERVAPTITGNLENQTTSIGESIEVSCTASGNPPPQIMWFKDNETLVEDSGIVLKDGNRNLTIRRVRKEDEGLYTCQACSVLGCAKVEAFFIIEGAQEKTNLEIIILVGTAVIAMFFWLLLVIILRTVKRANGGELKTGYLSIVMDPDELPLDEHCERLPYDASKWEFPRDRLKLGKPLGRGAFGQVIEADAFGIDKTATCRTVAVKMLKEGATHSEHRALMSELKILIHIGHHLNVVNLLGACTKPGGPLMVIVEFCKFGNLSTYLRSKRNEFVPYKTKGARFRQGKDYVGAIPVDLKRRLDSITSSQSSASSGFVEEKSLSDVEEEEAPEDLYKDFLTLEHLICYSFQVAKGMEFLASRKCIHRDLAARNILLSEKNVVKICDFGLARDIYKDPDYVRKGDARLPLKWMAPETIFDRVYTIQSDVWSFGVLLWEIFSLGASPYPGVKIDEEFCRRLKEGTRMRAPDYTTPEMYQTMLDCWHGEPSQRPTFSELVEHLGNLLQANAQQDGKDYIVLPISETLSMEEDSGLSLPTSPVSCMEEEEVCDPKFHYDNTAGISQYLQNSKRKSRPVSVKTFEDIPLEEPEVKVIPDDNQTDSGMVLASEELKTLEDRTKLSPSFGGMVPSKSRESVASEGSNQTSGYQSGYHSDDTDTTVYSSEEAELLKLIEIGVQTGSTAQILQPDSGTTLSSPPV", "assay": "Kinase panel (Millipore)", "assay_type": "biochemical", "conditions": "1 µM, ATP at Km"}, "[10]": {"target": "IRAK4 (Homo sapiens, UniProt Q9NWZ3)", "assay": "Kinase panel (Millipore)", "assay_type": "biochemical", "conditions": "1 µM, ATP at Km"}, "[11]": {"target": "T7, EPHB1 (Homo sapiens, UniProt P54762)", "T7 construct": "purchased Millipore (KinaseProfiler) kinase panel", "assay": "Kinase panel (Millipore)", "assay_type": "biochemical", "conditions": "1 µM, ATP at Km"}, "[12]": {"target": "T8, SGK3 (Homo sapiens, UniProt Q96BR1)", "T8 construct": "purchased Millipore (KinaseProfiler) kinase panel", "assay": "Kinase panel (Millipore)", "assay_type": "biochemical", "conditions": "1 µM, ATP at Km"}, "[13]": {"target": "T9, SIK (Homo sapiens, UniProt P57059)", "T9 construct": "purchased Millipore (KinaseProfiler) kinase panel", "assay": "Kinase panel (Millipore)", "assay_type": "biochemical", "conditions": "1 µM, ATP at Km"}, "[14]": {"target": "T10, EPHA7 (Homo sapiens, UniProt Q15375)", "T10 construct": "purchased Millipore (KinaseProfiler) kinase panel", "assay": "Kinase panel (Millipore)", "assay_type": "biochemical", "conditions": "1 µM, ATP at Km"}, "[15]": {"target": "T11, MNK2 (Homo sapiens, UniProt Q9HBH9)", "T11 construct": "purchased Millipore (KinaseProfiler) kinase panel", "assay": "Kinase panel (Millipore)", "assay_type": "biochemical", "conditions": "1 µM, ATP at Km"}, "[16]": {"target": "D3 (h) (Homo sapiens, UniProt P35462)", "sequence (P35462 whole entry)": "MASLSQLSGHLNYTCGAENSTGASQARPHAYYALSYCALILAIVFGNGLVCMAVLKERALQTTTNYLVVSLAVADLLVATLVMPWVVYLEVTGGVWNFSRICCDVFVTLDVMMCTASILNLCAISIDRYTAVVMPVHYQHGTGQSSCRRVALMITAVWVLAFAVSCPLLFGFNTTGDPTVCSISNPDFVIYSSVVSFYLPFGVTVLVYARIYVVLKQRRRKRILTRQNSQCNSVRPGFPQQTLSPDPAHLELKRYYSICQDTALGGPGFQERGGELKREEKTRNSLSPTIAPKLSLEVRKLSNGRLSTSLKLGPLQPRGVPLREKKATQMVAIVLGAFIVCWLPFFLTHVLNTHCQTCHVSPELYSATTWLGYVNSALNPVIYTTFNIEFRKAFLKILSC", "assay": "biochemical", "conditions": "read-out: % Inhibition of Control Specific Binding"}, "[17]": {"assay": "in vivo", "conditions": "female, NMRI, mouse, po, 0.5 mg/kg"}, "[18]": {"test_system": "STAT1^SER727 phosphorylation", "conditions": "30 mg/kg q.d. oral"}, "[19]": {"target": "T12, PKCZETA (Homo sapiens, UniProt Q05513)", "T12 construct": "purchased Millipore (KinaseProfiler) kinase panel", "assay": "Kinase panel (Millipore)", "assay_type": "biochemical", "conditions": "1 µM, ATP at Km"}, "[20]": {"target": "PI3 KINASE (H1047R/P85A) (Homo sapiens, UniProt P42336, H1047R)", "conditions": "1 µM, ATP at Km"}, "[21]": {"target": "T13, TAO3 (Homo sapiens, UniProt Q9H2K8)", "T13 construct": "purchased Millipore (KinaseProfiler) kinase panel", "assay": "Kinase panel (Millipore)", "assay_type": "biochemical", "conditions": "1 µM, ATP at Km"}, "[22]": {"target": "T14, EPHB3 (Homo sapiens, UniProt P54753)", "T14 construct": "purchased Millipore (KinaseProfiler) kinase panel", "assay": "Kinase panel (Millipore)", "assay_type": "biochemical", "conditions": "1 µM, ATP at Km"}, "[23]": {"target": "AURKA (Homo sapiens, UniProt O14965)", "assay": "Kinase panel (Millipore)", "assay_type": "biochemical", "conditions": "1 µM, ATP at Km"}, "[24]": {"target": "PIM-3 (Homo sapiens, UniProt Q86V86)", "assay": "Kinase panel (Millipore)", "assay_type": "biochemical", "conditions": "1 µM, ATP at Km"}, "[25]": {"target": "CDK5/P35 (Homo sapiens, UniProt Q00535)", "conditions": "1 µM, ATP at Km"}, "[26]": {"target": "T15, PKD2 (Homo sapiens, UniProt Q9BZL6)", "T15 construct": "purchased Millipore (KinaseProfiler) kinase panel", "assay": "Kinase panel (Millipore)", "assay_type": "biochemical", "conditions": "1 µM, ATP at Km"}, "[27]": {"target": "T16, FER (Homo sapiens, UniProt P16591)", "T16 construct": "purchased Millipore (KinaseProfiler) kinase panel", "assay": "Kinase panel (Millipore)", "assay_type": "biochemical", "conditions": "1 µM, ATP at Km"}, "[28]": {"target": "T17, IR (Homo sapiens, UniProt P06213)", "T17 construct": "purchased Millipore (KinaseProfiler) kinase panel", "T17 sequence (P06213 28-1382)": "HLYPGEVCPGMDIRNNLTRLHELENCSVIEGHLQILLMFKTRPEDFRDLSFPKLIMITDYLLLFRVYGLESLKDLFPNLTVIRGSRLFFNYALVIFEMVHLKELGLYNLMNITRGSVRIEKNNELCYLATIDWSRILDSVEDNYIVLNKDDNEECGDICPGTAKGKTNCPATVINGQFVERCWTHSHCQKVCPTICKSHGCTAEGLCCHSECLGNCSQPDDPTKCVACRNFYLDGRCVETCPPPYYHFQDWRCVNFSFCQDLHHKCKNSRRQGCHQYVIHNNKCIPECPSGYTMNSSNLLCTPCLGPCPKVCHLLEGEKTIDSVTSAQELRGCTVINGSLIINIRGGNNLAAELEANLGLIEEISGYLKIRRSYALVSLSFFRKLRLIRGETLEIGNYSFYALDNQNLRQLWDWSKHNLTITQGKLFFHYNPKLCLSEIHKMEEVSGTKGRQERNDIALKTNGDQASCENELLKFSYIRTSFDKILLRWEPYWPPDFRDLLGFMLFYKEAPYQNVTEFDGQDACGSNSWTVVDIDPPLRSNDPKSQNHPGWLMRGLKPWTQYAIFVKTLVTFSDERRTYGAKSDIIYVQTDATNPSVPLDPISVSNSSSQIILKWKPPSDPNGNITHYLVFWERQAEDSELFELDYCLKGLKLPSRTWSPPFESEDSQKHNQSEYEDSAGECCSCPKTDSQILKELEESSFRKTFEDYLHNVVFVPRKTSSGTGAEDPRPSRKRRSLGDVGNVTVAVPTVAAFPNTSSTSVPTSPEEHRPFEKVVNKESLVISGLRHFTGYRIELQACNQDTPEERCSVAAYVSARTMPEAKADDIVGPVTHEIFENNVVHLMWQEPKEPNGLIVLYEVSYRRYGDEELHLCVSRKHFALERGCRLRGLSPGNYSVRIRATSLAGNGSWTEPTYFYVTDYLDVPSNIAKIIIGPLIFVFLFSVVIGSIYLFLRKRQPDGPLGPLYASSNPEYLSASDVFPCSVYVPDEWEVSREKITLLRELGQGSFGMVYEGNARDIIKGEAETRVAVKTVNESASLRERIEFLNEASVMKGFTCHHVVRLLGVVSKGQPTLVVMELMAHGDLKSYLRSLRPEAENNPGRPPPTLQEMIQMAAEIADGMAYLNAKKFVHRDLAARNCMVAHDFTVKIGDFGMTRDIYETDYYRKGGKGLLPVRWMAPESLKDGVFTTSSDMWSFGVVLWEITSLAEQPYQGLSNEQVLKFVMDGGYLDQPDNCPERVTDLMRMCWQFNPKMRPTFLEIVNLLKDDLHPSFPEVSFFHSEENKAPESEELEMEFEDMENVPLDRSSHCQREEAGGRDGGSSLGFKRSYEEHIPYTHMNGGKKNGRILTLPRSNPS", "assay": "Kinase panel (Millipore)", "assay_type": "biochemical", "conditions": "1 µM, ATP at Km"}, "[29]": {"target": "CDK2/CYCLINA (Homo sapiens, UniProt P24941)", "conditions": "1 µM, ATP at Km"}, "[30]": {"target": "FGFR2 (Homo sapiens, UniProt P21802)", "assay": "Kinase panel (Millipore)", "assay_type": "biochemical", "conditions": "1 µM, ATP at Km"}, "[31]": {"target": "T18, ETB (h) (Homo sapiens, UniProt P24530)", "T18 construct": "purchased Millipore (KinaseProfiler) kinase panel", "T18 sequence (P24530 27-442)": "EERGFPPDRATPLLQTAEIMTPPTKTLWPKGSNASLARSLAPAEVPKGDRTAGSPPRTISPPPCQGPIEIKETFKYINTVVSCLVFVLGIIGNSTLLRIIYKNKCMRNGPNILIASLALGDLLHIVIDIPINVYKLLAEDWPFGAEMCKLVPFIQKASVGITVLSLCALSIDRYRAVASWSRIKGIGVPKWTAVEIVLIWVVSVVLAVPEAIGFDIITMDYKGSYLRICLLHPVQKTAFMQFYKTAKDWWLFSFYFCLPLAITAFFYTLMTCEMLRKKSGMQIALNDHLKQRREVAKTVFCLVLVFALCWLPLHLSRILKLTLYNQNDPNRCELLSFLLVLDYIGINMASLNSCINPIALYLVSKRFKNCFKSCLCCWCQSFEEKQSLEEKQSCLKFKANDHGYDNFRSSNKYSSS", "assay": "CEREP binding assay", "conditions": "agonist radioligand, read-out: % Inhibition of Control Specific Binding"}, "[32]": {"target": "T19, MSSK1 (Homo sapiens, UniProt Q9UPE1)", "T19 construct": "purchased Millipore (KinaseProfiler) kinase panel", "assay": "Kinase panel (Millipore)", "assay_type": "biochemical", "conditions": "1 µM, ATP at Km"}, "[33]": {"target": "T20, PRKX (Homo sapiens, UniProt P51817)", "T20 construct": "purchased Millipore (KinaseProfiler) kinase panel", "assay": "Kinase panel (Millipore)", "assay_type": "biochemical", "conditions": "1 µM, ATP at Km"}, "[34]": {"target": "ABL (H396P) (Homo sapiens, UniProt P00519, H396P)", "conditions": "1 µM, ATP at Km"}, "[35]": {"target": "GSK3ALPHA (Homo sapiens, UniProt P49840)", "assay": "Kinase panel (Millipore)", "assay_type": "biochemical", "conditions": "1 µM, ATP at Km"}, "[36]": {"target": "T21, RET (Homo sapiens, UniProt P07949)", "T21 construct": "purchased Millipore (KinaseProfiler) kinase panel", "assay": "Kinase panel (Millipore)", "assay_type": "biochemical", "conditions": "1 µM, ATP at Km"}, "[37]": {"target": "RSK3 (Homo sapiens, UniProt Q15349)", "sequence (Q15349 whole entry)": "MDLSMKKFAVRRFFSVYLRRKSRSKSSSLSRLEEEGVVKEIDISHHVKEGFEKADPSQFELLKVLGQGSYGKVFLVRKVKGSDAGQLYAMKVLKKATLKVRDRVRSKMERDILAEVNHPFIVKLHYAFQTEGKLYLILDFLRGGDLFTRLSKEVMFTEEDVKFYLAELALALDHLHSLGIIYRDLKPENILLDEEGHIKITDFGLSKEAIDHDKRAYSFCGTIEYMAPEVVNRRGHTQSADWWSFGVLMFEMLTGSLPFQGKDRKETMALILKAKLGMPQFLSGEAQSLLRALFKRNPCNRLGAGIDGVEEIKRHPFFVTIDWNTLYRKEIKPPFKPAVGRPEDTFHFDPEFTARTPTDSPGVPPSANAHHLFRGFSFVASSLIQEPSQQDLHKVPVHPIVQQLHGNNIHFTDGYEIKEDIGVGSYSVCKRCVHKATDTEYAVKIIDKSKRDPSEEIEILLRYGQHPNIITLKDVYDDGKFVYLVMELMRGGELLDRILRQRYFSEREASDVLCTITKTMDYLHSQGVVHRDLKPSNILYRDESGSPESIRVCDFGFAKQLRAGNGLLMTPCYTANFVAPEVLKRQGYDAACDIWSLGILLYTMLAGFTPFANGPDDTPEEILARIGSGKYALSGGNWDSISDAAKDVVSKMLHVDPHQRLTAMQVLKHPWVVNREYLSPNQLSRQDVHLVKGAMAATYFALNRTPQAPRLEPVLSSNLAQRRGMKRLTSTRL", "assay": "Kinase panel (Millipore)", "assay_type": "biochemical", "conditions": "1 µM, ATP at Km"}, "[38]": {"test_system": "MT3 (ML2)", "conditions": "10 µM, agonist radioligand"}, "[39]": {"target": "T22, RSK4 (Homo sapiens, UniProt Q9UK32)", "T22 construct": "purchased Millipore (KinaseProfiler) kinase panel", "assay": "Kinase panel (Millipore)", "assay_type": "biochemical", "conditions": "1 µM, ATP at Km"}, "[40]": {"target": "T23, ALK4 (Homo sapiens, UniProt P36896)", "T23 construct": "purchased Millipore (KinaseProfiler) kinase panel", "assay": "Kinase panel (Millipore)", "assay_type": "biochemical", "conditions": "1 µM, ATP at Km"}, "[41]": {"conditions": "female, Beagle, dog, in vivo"}, "[42]": {"target": "CLK2 (Homo sapiens, UniProt P49760)", "assay": "Kinase panel (Millipore)", "assay_type": "biochemical", "conditions": "1 µM, ATP at Km"}, "[43]": {"target": "CDK6/CYCLIND3 (Homo sapiens, UniProt Q00534)", "sequence (Q00534 whole entry)": "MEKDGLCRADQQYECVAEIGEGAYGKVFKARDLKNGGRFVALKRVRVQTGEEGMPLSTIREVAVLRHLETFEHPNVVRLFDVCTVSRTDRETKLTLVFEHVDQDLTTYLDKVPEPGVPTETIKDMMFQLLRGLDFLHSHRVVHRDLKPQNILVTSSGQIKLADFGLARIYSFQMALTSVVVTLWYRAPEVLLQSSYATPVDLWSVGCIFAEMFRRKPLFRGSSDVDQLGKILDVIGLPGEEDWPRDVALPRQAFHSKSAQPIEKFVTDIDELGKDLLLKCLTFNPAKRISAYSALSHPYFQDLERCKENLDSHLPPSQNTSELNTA", "sequence (P30281 whole entry partner)": "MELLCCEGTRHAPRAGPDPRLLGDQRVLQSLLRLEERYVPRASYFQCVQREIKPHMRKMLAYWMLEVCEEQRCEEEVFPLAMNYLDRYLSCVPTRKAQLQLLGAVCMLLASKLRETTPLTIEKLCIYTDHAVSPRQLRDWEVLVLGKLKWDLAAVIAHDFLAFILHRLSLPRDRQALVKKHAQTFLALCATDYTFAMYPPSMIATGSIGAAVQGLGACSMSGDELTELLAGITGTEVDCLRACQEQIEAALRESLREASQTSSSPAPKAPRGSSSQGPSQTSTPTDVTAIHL", "conditions": "1 µM, ATP at Km"}},
  "data": [
    {"compound": "Cn1ncc2cc(-c3cnc(N)c(Cl)c3N3CCC4(CCNC4=O)CC3)ccc21", "note": "[Compound 109, 8-(2-Amino-3-chloro-5-(1-methyl-1H-indazol-5-yl)pyridin-4-yl)-2,8-diazaspiro[4.5]decan-1-one]", "values": [
      {"measurement": "% effect", "setting": "[1]", "value": 0, "unit": "%"},
      {"measurement": "inhibition at 10 µM", "setting": "[2]", "value": -12, "unit": "%"},
      {"measurement": "% effect", "setting": "[3]", "value": -2, "unit": "%"},
      {"measurement": "% effect", "setting": "[4]", "value": -21, "unit": "%"},
      {"measurement": "% effect", "setting": "[5]", "value": -12, "unit": "%"},
      {"measurement": "% effect", "setting": "[6]", "value": -9, "unit": "%"},
      {"measurement": "inhibition at 10 µM", "setting": "[7]", "value": -7, "unit": "%"},
      {"measurement": "% effect", "setting": "[8]", "value": -9, "unit": "%"},
      {"measurement": "% effect", "setting": "[9]", "value": -26, "unit": "%"},
      {"measurement": "% effect", "setting": "[10]", "value": 6, "unit": "%"},
      {"measurement": "% effect", "setting": "[11]", "value": 3, "unit": "%"},
      {"measurement": "% effect", "setting": "[12]", "value": 13, "unit": "%"},
      {"measurement": "% effect", "setting": "[13]", "value": -1, "unit": "%"},
      {"measurement": "% effect", "setting": "[14]", "value": 13, "unit": "%"},
      {"measurement": "% effect", "setting": "[15]", "value": -3, "unit": "%"},
      {"measurement": "inhibition at 10 µM", "setting": "[16]", "value": 7, "unit": "%"},
      {"measurement": "bioavailability", "setting": "[17]", "value": 30, "unit": "%"},
      {"measurement": "duration of reduced STAT1 SER727 phosphorylation after the last dose", "setting": "[18]", "value": "more than 6 h"},
      {"measurement": "% effect", "setting": "[19]", "value": 1, "unit": "%"},
      {"measurement": "% effect", "setting": "[20]", "value": 7, "unit": "%"},
      {"measurement": "% effect", "setting": "[21]", "value": -11, "unit": "%"},
      {"measurement": "% effect", "setting": "[22]", "value": 5, "unit": "%"},
      {"measurement": "% effect", "setting": "[23]", "value": -16, "unit": "%"},
      {"measurement": "% effect", "setting": "[24]", "value": 6, "unit": "%"},
      {"measurement": "% effect", "setting": "[25]", "value": 1, "unit": "%"},
      {"measurement": "% effect", "setting": "[26]", "value": -1, "unit": "%"},
      {"measurement": "% effect", "setting": "[27]", "value": 15, "unit": "%"},
      {"measurement": "% effect", "setting": "[28]", "value": -5, "unit": "%"},
      {"measurement": "% effect", "setting": "[29]", "value": 1, "unit": "%"},
      {"measurement": "% effect", "setting": "[30]", "value": 4, "unit": "%"},
      {"measurement": "inhibition at 10 µM", "setting": "[31]", "value": -23, "unit": "%"},
      {"measurement": "% effect", "setting": "[32]", "value": -1, "unit": "%"},
      {"measurement": "% effect", "setting": "[33]", "value": -9, "unit": "%"},
      {"measurement": "% effect", "setting": "[34]", "value": -4, "unit": "%"},
      {"measurement": "% effect", "setting": "[35]", "value": -18, "unit": "%"},
      {"measurement": "% effect", "setting": "[36]", "value": 7, "unit": "%"},
      {"measurement": "% effect", "setting": "[37]", "value": -15, "unit": "%"},
      {"measurement": "% Inhibition of Control Specific Binding", "setting": "[38]", "value": 71, "unit": "%"},
      {"measurement": "% effect", "setting": "[39]", "value": -6, "unit": "%"},
      {"measurement": "% effect", "setting": "[40]", "value": 2, "unit": "%"},
      {"measurement": "LBF", "setting": "[41]", "value": 43, "unit": "%"},
      {"measurement": "% effect", "setting": "[42]", "value": -2, "unit": "%"},
      {"measurement": "% effect", "setting": "[43]", "value": 5, "unit": "%"}
    ]}
  ]
}
